Measurements taken from patent publication US8343934B2, “Diverse lead compound autotaxin inhibitors” (University of Memphis, priority 2009, dated 2013).

Target: T1, ATX (Homo sapiens, UniProt Q13822)
T1 construct: conditioned serum-free medium (CCM) from MDA-MB-435 cells as the source of ATX; endogenous in cells; host or cells: MDA-MB-435 cells (about 10x concentrated conditioned serum-free medium)
Test: ATX inhibition assay (FS-3 substrate)
Assay type: biochemical
Settings: for % Response: preliminary screen, FS-3 hydrolysis at one hour, normalized to vehicle control, mean±S.D., same values given at 10 μM in Table 5
Experimental: ATX inhibition was assayed using the substrate FS-3 (Echelon Biosciences, Inc., Salt Lake City, Utah, USA). The FS-3 assay used ˜10 times concentrated conditioned serum-free medium (CCM) from MDA-MB-435 cells as the source of ATX, while CCM comprised one-third of the total volume. The final volume for FS-3 was comprised of the substrate at varying concentrations and 30 μM charcoal-stripped fatty acid free BSA (Sigma Aldrich) in assay buffer (1 mM each CaCl2 and MgCl2, 5 mM KCl, 140 mM NaCl, 50 mM Tris pH 8.0).
All assays were performed in 96-well plates with data read at 1 minute intervals by a Synergy2 system (BioTek, Winooski, Vt.). The fluorescence produced upon the hydrolysis of FS-3 was monitored using an excitation wavelength of 485 nm and an emission wavelength of 528 nm at 37° C. (Ferguson et al., 2006). […] All readings were normalized to vehicle control after subtraction of fluorescence in the absence of CCM. Data are shown as the mean±S.D. of at least three wells.

[1] = Calculated IC50 data for the 30 active compounds, FS-3 substrate

Row | Compound | % Response | other results
1 | O=C(COc1ccc(Cl)cc1C(=O)O)NCc1cccc(NC(=O)Nc2ccc(S(=O)(=O)F)cc2)c1 [compound 212086] | 95 ± 4.3% | 
2 | CCOc1ccc(N=c2ccc3c(-c4c(Cl)ccc(Cl)c4C(=O)O)c4ccc(Nc5ccc(OCC)cc5S(=O)(=O)O)cc4oc-3c2)cc1.[Na+] [compound 8682] | 52 ± 7.7% | 
3 | Nc1ccc(C(=O)Nc2ccc(NC(=O)Nc3ccc(NC(=O)c4ccc(N)cc4)c(S(=O)(=O)O)c3)cc2S(=O)(=O)O)cc1.[Na+] [compound 71960] | 88 ± 5.3% | 
4 | O=C(Nc1cc[c]([Sb](=[O])([OH])[OH])cc1)Nc1cc[c]([Sb](=[O])([OH])[OH])cc1 [compound 15408] | 100 ± 7.9% | 
5 | Cc1cc(N=Nc2ccc(S(=O)(=O)[O-])cc2)c(N)c(N=Nc2ccc(S(=O)(=O)[O-])cc2)c1N.[Na+].[Na+] [compound 65540] | 71 ± 4.4% | 
6 | Nc1c(N=Nc2ccc([N+](=O)[O-])cc2)c(S(=O)(=O)[O-])cc2cc(S(=O)(=O)[O-])c(N=Nc3ccc(-c4ccc(N=Nc5ccc(O)c(C(=O)[O-])c5)cc4)cc3)c(O)c12.[Na+].[Na+].[Na+] [compound 8681] | 55 ± 5.5% | 
7 | Cc1c(N)cc(S(=O)(=O)O)c(N=Nc2ccc(-c3ccc(N=Nc4c(S(=O)(=O)O)cc5cc(S(=O)(=O)O)c(N=Nc6cccc([N+](=O)[O-])c6)c(N)c5c4O)cc3)cc2)c1N.[Na+] [compound 80903] | 32 ± 2.6% | IC50 [1]: 5.88 µM
8 | O=C(N/N=C\c1ccc(O)c(S(=O)(=O)O)c1)N/N=C/c1ccc(O)c(S(=O)(=O)O)c1.[Na+] [compound 48776] | 94 ± 3.5% | 
9 | COc1cc(N=Nc2c(S(=O)(=O)O)cc3cc(NC(=O)Nc4ccc5c(O)c(N=Nc6ccc7cc(S(=O)(=O)O)ccc7c6)c(S(=O)(=O)O)cc5c4)ccc3c2O)c(C)cc1N [compound 58058] | 30 ± 4.9% | IC50 [1]: 13.8 µM
10 | NS(=O)(=O)c1ccc(N=NNc2ccc(C(=O)O)cc2)cc1.[Na+] [compound 13232] | 101 ± 9.0% | 
11 | NC(=N\N=C/c1ccc(O)c(S(=O)(=O)O)c1)/C(N)=N\N=C/c1ccc(O)c(S(=O)(=O)O)c1.[Na+] [compound 47470] | 90 ± 3.2% | 
12 | O=C(Nc1ccc2c(O)cc(S(=O)(=O)[O-])cc2c1)Nc1ccc2c(O)c(N=Nc3ccc4cc(S(=O)(=O)[O-])ccc4c3)c(S(=O)(=O)[O-])cc2c1.[Na+].[Na+].[Na+] [compound 45616] | 64 ± 3.0% | 
13 | Cc1cc(C(O)(c2ccc(Nc3ccccc3)cc2)c2ccc(Nc3ccc(S(=O)(=O)O)cc3)cc2)ccc1N (stereo not shown) [NSC 5014] |  | % ATX Acitivity (10 μM) (10 μM compound, FS-3 substrate): 39 ± 4.3%; IC50 (Table 5, FS-3 substrate): 1.27 µM
14 | Cc1cc(-c2ccc(N=Nc3c(N)c(S(=O)(=O)O)cc4cc(S(=O)(=O)O)ccc34)c(C)c2)ccc1N=Nc1cc(S(=O)(=O)O)c2ccccc2c1N [compound 7815] | 32 ± 5.5% | IC50 [1]: 13.4 µM
15 | Nc1ccc2cc(S(=O)(=O)O)cc(O)c2c1N=Nc1ccc(NC(=O)Nc2ccc(N=Nc3c(N)ccc4cc(S(=O)(=O)O)cc(O)c34)c(S(=O)(=O)O)c2)cc1S(=O)(=O)O [compound 11244] | 78 ± 7.0% | 
16 | CCOc1cc(-c2ccc(N=Nc3c(S(=O)(=O)O)cc4ccc(N)cc4c3O)cc2)ccc1N=Nc1c(S(=O)(=O)O)cc2ccc(N)cc2c1O.[Na+] [compound 44654] | 61 ± 4.3% | 
17 | Cc1cc(C)c(N=Nc2cc(C)c(N=Nc3c(S(=O)(=O)[O-])cc4cc(Nc5ccccc5)ccc4c3O)cc2C)c(S(=O)(=O)[O-])c1.[Na+].[Na+] [compound 47747] | 73 ± 3.0% | 
18 | Cc1c(N)cc(S(=O)(=O)O)cc1NC(=O)c1cccc([N+](=O)[O-])c1 [compound 5000] | 100 ± 5.5% | 
19 | COc1ccccc1N=Nc1c(S(=O)(=O)[O-])cc2cc(NC(=O)Nc3ccc4c(O)c(N=Nc5ccc(S(=O)(=O)[O-])cc5C)c(S(=O)(=O)[O-])cc4c3)ccc2c1O.[Na+].[Na+].[Na+] [compound 47764] | 41 ± 4.3% | IC50 [1]: 18.2 µM
20 | O=S(=O)(c1ccc(NC(C(O)C(O)C(O)C(O)CO)S(=O)(=O)O)cc1)c1ccc(NC(C(O)C(O)C(O)C(O)CO)S(=O)(=O)O)cc1 (stereo not shown) [compound 36701] | 98 ± 3.7% | 
21 | Nc1cccc(N=Nc2c(S(=O)(=O)[O-])cc3cc(Nc4ccc5c(O)c(N=Nc6cccc(N)c6)c(S(=O)(=O)[O-])cc5c4)ccc3c2O)c1.[Na+].[Na+] [compound 51533] | 67 ± 4.0% | 
22 | CN(C)C1C(=O)C(C(=O)NCNc2cccc(C(=O)O)c2C(=O)O)=C(O)C2(O)C(=O)C3=C(O)c4c(O)cccc4[C@](C)(O)[C@@H]3C[C@H]12 (stereo partly shown) [compound 43891] | 32 ± 9.1% | IC50 [1]: 13.9 µM
23 | COc1cc(N=Nc2cc(S(=O)(=O)[O-])cc3cc(S(=O)(=O)[O-])cc(O)c23)c(C)cc1N=Nc1c(S(=O)(=O)[O-])cc2cc(Nc3ccccc3)ccc2c1O.[Na+].[Na+].[Na+] [compound 47755] | 47 ± 3.7% | IC50 [1]: 37.6 µM
24 | Nc1ccc(N=Nc2ccc(-c3ccc(N=Nc4c(S(=O)(=O)[O-])cc5cc(S(=O)(=O)[O-])c(N=Nc6ccc([N+](=O)[O-])cc6)c(N)c5c4O)cc3)cc2)c2cc(S(=O)(=O)[O-])ccc12.[Na+].[Na+].[Na+] [compound 79743] | 39 ± 2.7% | IC50 [1]: 8.33 µM
25 | O=S(=O)(O)c1cc(O)c2ccc(Nc3ccc4c(O)cc(S(=O)(=O)O)cc4c3)cc2c1 [compound 1698] | 89 ± 5.1% | 
26 | O=C(Nc1ccc2c(O)c(N=Nc3ccccc3)c(S(=O)(=O)[O-])cc2c1)Nc1ccc2c(O)c(N=Nc3ccccc3)c(S(=O)(=O)[O-])cc2c1.[Na+].[Na+] [compound 16223] | 77 ± 9.8% | 
